In US6159696A, “Isolated human BMP-4 promoter region” (priority 1996, dated 2000):
Entries after “also recorded” stand apart in the source; their conditions may differ.

How the values were obtained:
BMP-4 promoter 1 region = experiment: ER-mediated luciferase reporter gene modulation, BMP-4 promoter 1 region constructs, transient transfection of U-2 OS cells with pKCRE-ER; format: cell-based, human; conditions: for ER-mediated expression of the reporter gene under control of BMP-4 promoter region (in words): BMP-4 promoter region reporter plus ER expression vector; for Fold Induction: ratio of luciferase activity in presence and absence of compound, U-2 OS, human ER
Description: (§1) Additional fragments of promoter region 1 were generated by progressive exonuclease III digestion (Erase-a-base Kit, Promega), blunt-ended with klenow and deoxynucleotide-triphosphates and subcloned into an endoR SmaI-digested pSLA4 luciferase reporter plasmid.
(§2) The human estrogen receptor (ER)-containing mammalian expression construct pKCRE-ER was constructed in the following way. […] The ER-cDNA was isolated as an endoR SphI/EcoRI fragment comprising nucleotide positions -30 to +1800.
ER-mediated reporter gene modulation by different estrogen analogs of individual promoter region constructs were assayed by transient transfection of osteosarcoma cells (U-2 OS). One day prior to transfection, U-2 OS cells were seeded at a density of 10^5 cells per well (6-well tissue culture plates; Nunc). In this case, the cells were seeded in fenolred-free medium containing 10% (v/v) charcoal-stripped Fetal Calf Serum (csFCS) instead of FCS. DNA was introduced using the lipofection method as described by the supplier (Gibco, BRL). Hereto, the DNA (1 μg receptor construct, 1 μg reporter construct and 250 ng transfection control construct in 250 μL Optimem, Gibco BRL; in different experiments the total amount of transfected DNA was kept constant using pKCRE) was mixed with an equal volume of Lipofectin Reagent (Gibco, BRL) and allowed to stand for 30 min at room temperature. To this was added 500 μL of Optimem (RT) and this mixture was added to the cells, after the latter have been washed with serum-free medium. After a 5 h incubation period at 37° C., the cells were washed with fenolred-free and serum-free medium and incubated overnight in fenolred-free and 10% csFCS medium containing the testcompounds at the concentrations indicated. Prior to the preparation of lysates, cells were washed with PBS (7.6 mM Na2 HPO4 /NAH2 PO4 pH 7.4 and 0.12 M NaCl). Cell extracts were prepared by the addition of 200 μL lysis buffer (0.1 M sodium phosphate buffer pH 7.8 and 0.2% Triton X-100) to the cells and allowed to stand for 5 min at room temperature. Luciferase measurements of cell extracts was performed as described by the supplier (Promega; Luciferase assay system E1501). Hereto, 30 μL of cell extract was added to a […] Optiplate (Packard) and combined with 50 μL of luciferase substrate. The plates were sealed with Topseal film (Packard) and measurements were performed in a Topcount (Packard).

[1] = test system: estrogen response element (ERE)-containing promoter; experiment: ER-mediated luciferase reporter gene modulation, estrogen response element promoter construct pERE3 TATA-Luc, transient transfection of U-2 OS cells with pKCRE-ER; format: cell-based, human; conditions: for expression of the reporter gene under the control of a promoter comprising an estrogen responsive element (ERE) (in words): ERE promoter reporter plus ER expression vector
Description: The estrogen response element (ERE)-containing promoter construct was based on pBL-CAT6 (Boshart et al., Gene 110, 129, 1992). It was modified into a luciferase (Luc) reporter construct by exchanging the endoR XhoI/StyI fragment of pBL CAT6 (containing the chloramphenicol acetyl transferase coding information) by the endoR XhoI/StyI fragment of pXP2 (containing the luciferase coding information; Nordeen et al., Biotechniques 6, 454, 1988). A minimal promoter/TATA-element with the sequence 5'-GGGTATATAAT-3'(SEQ ID NO:8) was inserted in between the endoR XbaI and endoR BamHI sites resulting in plasmid pTATA-Luc. A triple estrogen response element (ERE) with the core sequence
was inserted in the endoR HindIII site resulting in plasmid pERE3 TATA-Luc.
The human estrogen receptor (ER)-containing mammalian expression construct pKCRE-ER was constructed in the following way. The human ER-cDNA was obtained from G. Greene (Ben May Laboratory for Cancer Research, University of Chicago); it encodes a glycine instead of valine at amino acid position 400 (G. Greene et al., Science 231, 1150, 1986 and Tora et al., EMBO. J, 8, 1981, 1989). The ER-cDNA was isolated as an endoR SphI/EcoRI fragment comprising nucleotide positions -30 to +1800. This fragment was blunted by T4-DNA polymerase and inserted in the blunted endoR BamHI site of the mammalian expression construct pKCR (O'Hara et al., Proc.Natl.Acad.Sci.USA, 78, 1527, 1981). The latter plasmid was modified in that the last exon region of the rabbit β-globin gene was removed by digestion with endoR EcoRI/BgIII, filling in, and religation (nucleotide position 1122-1196; Van Ooyen et al., Science 206, 337, 1979) and the replacement of pBR322 for pBR327 sequences.
(§3) ER-mediated reporter gene modulation by different estrogen analogs of individual promoter region constructs were assayed by transient transfection of osteosarcoma cells (U-2 OS). One day prior to transfection, U-2 OS cells were seeded at a density of 10^5 cells per well (6-well tissue culture plates; Nunc). In this case, the cells were seeded in fenolred-free medium containing 10% (v/v) charcoal-stripped Fetal Calf Serum (csFCS) instead of FCS. DNA was introduced using the lipofection method as described by the supplier (Gibco, BRL). Hereto, the DNA (1 μg receptor construct, 1 μg reporter construct and 250 ng transfection control construct in 250 μL Optimem, Gibco BRL; in different experiments the total amount of transfected DNA was kept constant using pKCRE) was mixed with an equal volume of Lipofectin Reagent (Gibco, BRL) and allowed to stand for 30 min at room temperature. To this was added 500 μL of Optimem (RT) and this mixture was added to the cells, after the latter have been washed with serum-free medium. […]

BMP-4 promoter 2 region = experiment: ER-mediated luciferase reporter gene modulation, BMP-4 promoter 2 region constructs, transient transfection of U-2 OS cells with pKCRE-ER; format: cell-based; conditions: human ER (FIG. 8, FIG. 9)
Description: as §1, §2
as §3, with “temperature.” for “temperature. To this was added 500 μL of Optimem (RT) and this mixture was added to the cells, after the latter have been washed with serum-free medium.”

[2] = test system: pSLA4 luciferase reporter plasmid; experiment: ER-mediated luciferase reporter gene modulation, pSLA4 reporter without BMP-4 promoter region, transient transfection of U-2 OS cells with pKCRE-ER; format: cell-based, human
Description: as §1, §2
as §3, with “temperature.” for “temperature. To this was added 500 μL of Optimem (RT) and this mixture was added to the cells, after the latter have been washed with serum-free medium.”

[3] = promoter region not further specified

SMILES: O=C(c1ccc(OCCN2CCCCC2)cc1)c1c(-c2ccc(O)cc2)sc2cc(O)ccc12 [Raloxifene, raloxifene]
- ER-mediated expression of the reporter gene under control of BMP-4 promoter region (in words) (BMP-4 promoter 1 region; [3]): could be induced and/or stimulated; also recorded: induced expression of the reporter gene
- Fold Induction (BMP-4 promoter 1 region; construct pSLA4.IN+16): 3.8 ± 0.6 fold
- Fold Induction (BMP-4 promoter 1 region; construct pSLA4.IN+33): 3.1 ± 0.3 fold
- Fold Induction (BMP-4 promoter 1 region; construct pSLA4.IN-42): 1.1 ± 0.2 fold
- Fold Induction (BMP-4 promoter 1 region; construct pSLA4.INX): 3.4 ± 0.5 fold
- Fold Induction (BMP-4 promoter 1 region; construct pSLA4.1EX (-1166/+173)): 3.7 ± 0.7 fold
- Fold Induction (BMP-4 promoter 1 region; construct pSLA4.1PX (-697/+173)): 3.3 ± 0.5 fold
- expression of the reporter gene under the control of a promoter comprising an estrogen responsive element (ERE) (in words) [1]: neither of these compounds were able to induce expression of the reporter gene
- Fold Induction ([1]; construct pERE3 TATA-Luc, ratio of luciferase activity in presence and absence of compound, U-2 OS, human ER): 0.7 ± 0.3 fold
- ER-mediated effect on BMP-4 promoter 2 region reporter (in words) (BMP-4 promoter 2 region): also apparent
- Fold Induction ([2]; construct pSLA4 (no BMP-4 promoter region), ratio of luciferase activity in presence and absence of compound, U-2 OS, human ER): 1.1 ± 0.2 fold

SMILES: CC/C(=C(\c1ccccc1)c1ccc(OCCN(C)C)cc1)c1ccccc1 [tamoxifen]
- ER-mediated expression of the reporter gene under control of BMP-4 promoter region (in words) (BMP-4 promoter 1 region; [3]): could be induced and/or stimulated; also recorded: induced expression of the reporter gene
- expression of the reporter gene under the control of a promoter comprising an estrogen responsive element (ERE) (in words) [1]: neither of these compounds were able to induce expression of the reporter gene

SMILES: CC/C(=C(\c1ccc(O)cc1)c1ccc(OCCN(C)C)cc1)c1ccccc1 [4OH-tamoxifen]
- ER-mediated expression of the reporter gene under control of BMP-4 promoter region (in words) (BMP-4 promoter 1 region; [3]): can also be achieved

SMILES: C[C@]12CC[C@@H]3c4ccc(O)cc4CC[C@H]3[C@@H]1CC[C@@H]2O [Estradiol, 17β-estradiol]
- ER-mediated expression of the reporter gene under control of BMP-4 promoter region (in words) (BMP-4 promoter 1 region; promoter region not further specified in the sentence, listed as 17-β-estradiol): did not show a significant transcriptional effect
- ER-mediated expression of the reporter gene under control of BMP-4 promoter region (in words) (BMP-4 promoter 1 region; promoter region not further specified in the sentence, listed as 17β-estradiol): did not induce the expression of the reporter gene
- Fold Induction ([1]; u-2 os cells): 26 ± 7 fold
- Fold Induction ([2]; u-2 os cells): 0.7 ± 0.1 fold

SMILES: CCCCN(C)C(=O)CCCCCCCCCC[C@@H]1Cc2cc(O)ccc2[C@H]2CC[C@]3(C)[C@@H](O)CC[C@H]3[C@H]12 [ICI 164384]
- ER-mediated expression of the reporter gene under control of BMP-4 promoter region (in words) (BMP-4 promoter 1 region; [3]): considerable expression of the reporter gene; also recorded: can also be achieved
